# Data taken from publication PMC7915858, “Complementary Effects of Carbamylated and Citrullinated LL37 in Autoimmunity and Inflammation in Systemic Lupus Erythematosus” (International Journal of Molecular Sciences, 2021).
# Test system: SLE CD4 T-cells (CXCR5)
# Test: CXCR5 (TFH marker) expression on stimulated CD4 T-cells, flow cytometry
# Type: cell-based, human
# Excerpt: Antibodies to CD4, CD8, CD3 conjugated with various fluorochromes (FITC, phycoerythrin (PE), peridinin-chlorophyll-protein (PerCp), allophycocyanin (APC), PE-Cy7) were from BD Biosciences or eBiosciences (San Diego, CA). For further LL37-specific T-cell characterization and B-cell characterization we used: APC-Cy7-CXCR5 (FAB190), APC or PE-CD38, CD19, CD20, CD27, antibodies, purchased from BD Biosciences, eBiosciences, Novus Biologicals (Littleton, CO), R&D (Minneapolis, MN). Appropriate isotype-matched controls were purchased from the same companies. PerCp-7-AAD was from BD Pharmingen, DAPI from Invitrogen (Thermo Fisher, Carlsbad, CA, USA).
# PBMCs were purified from EDTA-treated blood, on Ficoll-Hypaque (Pharmacia Fine Chemicals, Uppsala, Sweden) and were incubated (10^5 cells/well) in 96-well-flat-bottom-microplates (BD) in T-cell-medium (RPMI 1640, 10% heat-inactivated human serum, HS, Gibco), 2 mM L-glutamine, 10 U/mL penicillin and 100 μg/mL streptomycin), with/without peptides. We performed assays on fresh cells, within 1-to-3 h from collection or on PBMCs frozen in 90% FCS−10% DMSO, whose viability we assessed by Trypan blue exclusion, with an inverted microscope. Recovery of live cells was between 65 and 85% of the frozen number. At day 3 and 5, BrdU was added (1 μg/mL). BrdU-incorporation was detected by APC-labeled anti-BrdU antibody (BD Pharmingen), after surface staining for CD4, CD3, CD8 and analyzed by flow cytometry (Gallios, BeckmanCoulter, Brea, CA, USA). Internal control for T-cell viability and proliferation was PHA treatment (2 μg/mL). SI for proliferation was calculated by dividing percent of BrdU-staining in the presence of each peptide antigen (LL37, carb-LL37, cit-LL37, LL37 reverse, REV; cit-LL37 reverse, cit-REV; carb-LL37 reverse, carb-REV) by the percent obtained in the untreated cells. SI for proliferation was considered positive when the values of percent of BrdU positive cells was three times higher than the values obtained with the control peptides (SI > 3). Assays were repeated twice with each patient. In rare cases in which background proliferation (culture with REV, cit-REV, carb-REV), exceeded antigen-specific proliferation (that is response to LL37, carb-LL37, cit-LL37), the assay was repeated three times. Concomitant phenotype analysis of LL37-responder T-cells included staining for CD3, CD4, CD8, CXCR5 (CXCR5 was assessed on BrdU/CD3/CD4-positive cells).
substance,measurement,setting,value
L*LGDFFRK*SK*EK*IGKEFK*RIVQRIK*DFLRNLVPRTES [carb-LL37],Correlation of CXCR5 fold-increase with anti-native LL37 antibody response,"Spearman, Figure 4e",significantly correlated
same,Correlation of T-cell proliferation with CXCR5 up-regulation,"Spearman, Figure 3d",positive and significance correlation
same,CXCR5 up-regulation on antigen-specific T-cells,fold-increase with respect to T-cells proliferating to control carb-REV,up-regulation of the TFH cell marker CXCR5
same,CXCR5-positive cells among total CD3+CD4+ cells,"representative plot, Figure S5b left panels",8.95%
same,CXCR5-positive cells among CD3+CD4+BrdU+ cells,"representative plot, Figure S5b middle panels",39.4%
same,CXCR5-positive cells among CD3+CD4+BrdU- cells,"representative plot, Figure S5b right panels",3.08%
